# Results as given in US9988430B2, “Stable GLP-1 based GLP-1/glucagon receptor co-agonists” (Novo Nordisk A/S, priority 2014, dated 2018).
# *1 amine or outer side, *2 acyl side, *3 side chain or, on linkers, in order; H or OH if unused. Where a SMILES comes first, the peptide text is derived from it. Side-chain parts run from the residue outwards. [ ]: non-standard residue; d: D form. The star is where a group is joined. C20 diacid = O=C(O)CCCCCCCCCCCCCCCCCCC(=O)*; C18 diacid = O=C(O)CCCCCCCCCCCCCCCCC(=O)*; γGlu = O=C(O)[C@H](CCC(=O)[*:2])N[*:1]; Desaminohistidyl = O=C(CCc1c[nH]cn1)*; Ac4c = NC1(C(=O)O)CCC1; AEEA = NCCOCCOCC(=O)O; Aib = CC(C)(N)C(=O)O
# Biological target: T1, human GLP-1 receptor (Homo sapiens, UniProt P43220)
# T1 construct: expressed in transfected cells; host or cells: membranes of BHK cells, parent line BHKTS13, clone FCW467-12A
# Assay: Assay (II)(a): GLP-1 receptor binding, [125I]GLP-1 displacement, SPA on BHK membranes
# Conditions: displacement of [125I]GLP-1, membranes with human GLP-1 receptor; read-out: IC50 GLP-1R
# Experimental: Assay (II): GLP-1 and Glucagon Receptor Binding The purpose of this assay is to test the in vitro receptor binding activity of the GLP-1 derivatives of the invention. (a) GLP-1 Receptor Binding The GLP-1 receptor (GLP-1R) binding is a measure of the affinity of a derivative for the human GLP-1 receptor. The GLP-1 receptor binding of each derivatives were determined with competitive binding, displacing [^125I]GLP-1 bound to GLP-1 receptors expressed in cell membranes associated with wheat germ agglutinin (WGA) scintillation proximity assay (SPA) beads. Each derivative was added in a series of concentrations to isolated membranes comprising the human GLP-1 receptor and displacement of the labelled radioligand was monitored. The receptor binding was reported as the concentration at which half of the labelled ligand is displaced from the receptor, the IC^50 value. The following chemicals were used in the assay: MEM w/o phenol red (Gibco 11880-028), Pen/strep (Invitrogen 15140-122), G418 (Invitrogen 10131-027), 1 M Hepes (Gibco 15630), EDTA (Invitrogen 15575-038), PBS (Invitrogen 14190-094), fetal calf serum (Invitrogen 16140-071), EGTA, MgCl2 (Merck 1.05832.1000), Tween 20 (Amresco 0850C335), SPA particles (wheat germ agglutinin (WGA) SPA beads, Perkin Elmer RPNQ0001), [125I]-GLP-1]-(7-36)NH2 (produced in-house), OptiPlate™-96 (Perkin Elmer). Buffer 1 consisted of 20 mM Na-HEPES plus 10 mM EDTA and pH was adjusted to 7.4. Buffer 2 consisted of 20 mM Na-HEPES plus 0.1 mM EDTA and pH was adjusted to 7.4. Assay buffer consisted of 50 mM HEPES supplemented with 5 mM EGTA, 5 mM MgCl2, 0.005% Tween 20 and pH was adjusted to 7.4. A 0.02% albumin stock consisted of HSA dissolved at 0.02% (w/v) in assay buffer. The cells used in this assay (clone FCW467-12A) were BHK cells with BHKTS13 as a parent cell line. The cells express the human GLP-1 receptor. The cells were grown at 5% CO2 in DMEM, 10% fetal calf serum, 1% Pen/Strep (Penicillin/Streptomycin) and 1.0 mg/ml of the selection marker G418. To make a membrane preparation the cells were grown to approximately 80% confluence. The cells were washed twice in phosphate-buffered saline and harvested. The cells were pelleted using a brief centrifugation and the cell pellet was kept on ice. The cell pellet was homogenised with ULTRA-THURRAX dispersing instrument for 20-30 seconds in a suitable amount of buffer 1 (e.g., 10 ml). The homogenate was centrifuged for 15 minutes. The pellet was re-suspended (homogenised) in 10 ml buffer 2 and centrifuged. This step was repeated once more. The resulting pellet was re-suspended in buffer 2 and the protein concentration was determined. The membranes were aliquoted and stored at minus 80° C. • 1. For the receptor binding assay 50 μl of the assay buffer was added to each well of an assay plate. • 2. Test compounds were serially diluted to give the following concentrations: 8×10EE-7 M, 8×10EE-8 M, 8×10EE-9 M, 8×10EE-10 M, 8×10EE-11 M, 8×10EE-12 M and 8×10EE-13 M. Twenty-five μl were added to appropriate wells in the assay plate. • 3. Cell membrane aliquots were thawed and diluted to their working concentration. Fifty μl were added to each well in the assay plate. • 4. WGA SPA beads were suspended in assay buffer at 20 mg/ml. The suspension was diluted to 10 mg/ml in assay buffer just prior to addition to the assay plate. Fifty μl were added to each well in the assay plate. • 5. The incubation was started by adding 25 μl of 480 pM solution of [125I]-GLP-1]-(7-36)NH2 to each well of the assay plate. A 25 μl aliquot was reserved for measuring total counts/well. • 6. The assay plate was incubated for 2 h at 30° C. • 7. The assay plate was centrifuged for 10 min. • 8. The assay plate was read in a Perkin Elmer TopCount NXT instrument. Calculations The data from the TopCount instrument were transferred to GraphPad Prism software. The software averaged the values for the replicates and performed a non-linear regression. IC50 values were calculated by the software and reported in nM. […]
# T1 sequence (P43220 24-463): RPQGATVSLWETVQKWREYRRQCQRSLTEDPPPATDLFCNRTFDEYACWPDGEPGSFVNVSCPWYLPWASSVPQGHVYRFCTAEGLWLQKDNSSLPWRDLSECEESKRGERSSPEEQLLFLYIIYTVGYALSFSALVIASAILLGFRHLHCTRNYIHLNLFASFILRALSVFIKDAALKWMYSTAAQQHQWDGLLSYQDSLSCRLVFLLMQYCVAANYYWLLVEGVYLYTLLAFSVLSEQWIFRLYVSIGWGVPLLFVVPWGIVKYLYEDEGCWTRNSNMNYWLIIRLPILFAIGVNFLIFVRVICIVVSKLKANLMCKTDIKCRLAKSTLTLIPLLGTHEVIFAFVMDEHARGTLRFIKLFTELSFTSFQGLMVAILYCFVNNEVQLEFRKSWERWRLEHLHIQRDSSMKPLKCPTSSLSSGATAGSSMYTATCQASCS
row,Compound,IC50 [nM]
1,"CC[C@H](C)[C@H](NC(=O)[C@H](Cc1ccccc1)NC(=O)[C@H](CCC(=O)O)NC(=O)[C@H](CCCNC(=N)N)NC(=O)[C@H](C)NC(=O)[C@H](C)NC(=O)[C@H](CCC(N)=O)NC(=O)[C@H](CCC(=O)O)NC(=O)[C@H](CCC(=O)O)NC(=O)[C@H](CC(C)C)NC(=O)[C@H](Cc1ccc(O)cc1)NC(=O)[C@H](CCCCN)NC(=O)[C@H](CO)NC(=O)[C@@H](NC(=O)[C@H](CC(=O)O)NC(=O)[C@H](CO)NC(=O)[C@@H](NC(=O)[C@H](Cc1ccccc1)NC(=O)[C@@H](NC(=O)CNC(=O)[C@H](Cc1c[nH]cn1)NC(=O)C(C)(C)NC(=O)CCc1c[nH]cn1)[C@@H](C)O)[C@@H](C)O)C(C)C)C(=O)N[C@@H](C)C(=O)N[C@@H](Cc1c[nH]c2ccccc12)C(=O)N[C@@H](CC(C)C)C(=O)N[C@@H](CC(C)C)C(=O)N[C@@H](CCCCNC(=O)COCCOCCNC(=O)COCCOCCNC(=O)CC[C@H](NC(=O)CC[C@H](NC(=O)CCCCCCCCCCCCCCCCCCC(=O)O)C(=O)O)C(=O)O)C(=O)N[C@H](C(N)=O)[C@@H](C)O [Example 40, N^ε34-[2-[2-[2-[[2-[2-[2-[[(4S)-4-carboxy-4-[[(4S)-4-carboxy-4-(19-carboxynonadecanoylamino)butanoyl]amino]butanoyl]amino]ethoxy]ethoxy]acetyl]amino]ethoxy]ethoxy]acetyl]-[Imp7,Aib8,His9,Lys18,Glu22,Arg26,Leu33,Thr35]-GLP-1-(7-35)-peptide amide] (Desaminohistidyl-[Aib]HGTFTSDVSKYLEEQAAREFIAWLLK([AEEA-AEEA-γGlu-γGlu-C20 diacid])T-NH2)",0.4
2,"CC[C@H](C)[C@H](NC(=O)[C@H](Cc1ccccc1)NC(=O)[C@H](CCC(=O)O)NC(=O)[C@H](CCCNC(=N)N)NC(=O)[C@H](C)NC(=O)[C@H](C)NC(=O)[C@H](CCCNC(=N)N)NC(=O)[C@H](CCCCNC(=O)CC[C@H](NC(=O)CC[C@H](NC(=O)COCCOCCNC(=O)COCCOCCNC(=O)CC[C@H](NC(=O)CCCCCCCCCCCCCCCCC(=O)O)C(=O)O)C(=O)O)C(=O)O)NC(=O)[C@H](CCC(=O)O)NC(=O)[C@H](CC(C)C)NC(=O)[C@H](Cc1ccc(O)cc1)NC(=O)[C@H](CCCCN)NC(=O)[C@H](CO)NC(=O)[C@@H](NC(=O)[C@H](CC(=O)O)NC(=O)[C@H](CO)NC(=O)[C@@H](NC(=O)[C@H](Cc1ccccc1)NC(=O)[C@@H](NC(=O)CNC(=O)[C@H](Cc1c[nH]cn1)NC(=O)C1(NC(=O)CCc2c[nH]cn2)CCC1)[C@@H](C)O)[C@@H](C)O)C(C)C)C(=O)N[C@@H](C)C(=O)N[C@@H](Cc1c[nH]c2ccccc12)C(=O)N[C@@H](CC(C)C)C(=O)N[C@@H](CC(C)C)C(=O)N[C@@H](CCCCN)C(=O)N[C@H](C(N)=O)[C@@H](C)O [Example 32, N^ε22-[(4S)-4-carboxy-4-[[(4S)-4-carboxy-4-[[2-[2-[2-[[2-[2-[2-[[(4S)-4-carboxy-4-(17-carboxyheptadecanoylamino)butanoyl]amino]ethoxy]ethoxy]acetyl]amino]ethoxy]ethoxy]acetyl]amino]butanoyl]amino]butanoyl]-[Imp7,Acb8,His9,Lys18,Lys22,Arg23,Arg26,Leu33,Thr35]-GLP-1-(7-35)-peptide amide] (Desaminohistidyl-[Ac4c]HGTFTSDVSKYLEK([γGlu-γGlu-AEEA-AEEA-γGlu-C18 diacid])RAAREFIAWLLKT-NH2)",0.2
